In PubChem BioAssay (NCI):
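Values below derive from 48-hour exposures of cells grown in 96-well plates, with endpoints linearly interpolated between the two concentrations bracketing the appropriate inhibition level. Here, GI50 denotes the concentration required for 50% inhibition of growth. TGI denotes the concentration required for complete inhibition of growth.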

How the values were obtained:
Test in all cases: NCI anticancer screen, dose series, 48 h
KM12 colon = tested on: KM12 colon
SNB-19 CNS = tested on: SNB-19 CNS
SK-MEL-28 melanoma = tested on: SK-MEL-28 melanoma
LOX IMVI melanoma = tested on: LOX IMVI melanoma
NCI-H460 lung = tested on: NCI-H460 lung
M14 melanoma = tested on: M14 melanoma
BT-549 breast = tested on: BT-549 breast
EKVX NSCLC = tested on: EKVX NSCLC
NCI-H226 lung = tested on: NCI-H226 lung
SF-295 CNS = tested on: SF-295 CNS

| Structure (SMILES) | GI50 (KM12 colon) [µM] | TGI (KM12 colon) [µM] | GI50 (SNB-19 CNS) [µM] | TGI (SNB-19 CNS) [µM] | GI50 (SK-MEL-28 melanoma) [µM] | TGI (SK-MEL-28 melanoma) [µM] | GI50 (LOX IMVI melanoma) [µM] | TGI (LOX IMVI melanoma) [µM] | GI50 (NCI-H460 lung) [µM] | TGI (NCI-H460 lung) [µM] | GI50 (M14 melanoma) [µM] | TGI (M14 melanoma) [µM] | GI50 (BT-549 breast) [µM] | TGI (BT-549 breast) [µM] | GI50 (EKVX NSCLC) [µM] | TGI (EKVX NSCLC) [µM] | GI50 (NCI-H226 lung) [µM] | TGI (NCI-H226 lung) [µM] | GI50 (SF-295 CNS) [µM] | TGI (SF-295 CNS) [µM] |
| --- | --- | --- | --- | --- | --- | --- | --- | --- | --- | --- | --- | --- | --- | --- | --- | --- | --- | --- | --- | --- |
| CCN(CC)CCCC(C)Nc1c(C)cnc2cc(Cl)c(C)cc12 (stereo not drawn) | 13.8 | 28.6 | 17.7 | 50.6 | 2.49 | 8.99 | 2.17 | 10.7 | 14.1 | 32.3 | 1.76 | 3.19 | 12.9 | 28.7 | 15 | 38.7 | 4.57 | 15 | 11.3 | 28.1 |
| COc1ccc(C(=O)COc2cccc(/C=C3\COc4ccc5ccccc5c4C3=O)c2)cc1 | 3.11 | 24.6 | 9.37 | > 100 | 47.8 | > 100 | 5.41 | > 100 | 6.44 | > 100 | 67.8 | > 100 | 8.44 | > 100 | 4.26 | > 100 | 15.4 | > 100 | 2.87 | 63.6 |
| CCN(CC)c1sc(N(CC)CC)c2c1SSSSS2 | 1.68 | 3.55 | 2.64 | 12.7 | 1.55 | 3.92 | 1.01 | 3.31 | 2.48 | 6.02 | 1.45 | 3.23 | 2.06 | 4.8 | 1.84 | 5.54 | 1.75 | 3.46 | 2.09 | 4.04 |
| CCN1C(=O)CNc2ncc(-c3ccc(-c4ncn[nH]4)nc3C)nc21 | 0.193 | 11.3 | 0.337 | 6.9 | 0.115 | 1.44 | 0.205 | 2.47 | 0.118 | 11.3 | 0.0917 | 2.79 | 0.0716 | 0.695 | 0.188 | 5.77 | 0.128 | 6.44 | 0.105 | 0.679 |
| COc1ccc(OC)c(/C=C/C(=O)N/N=C/c2ccc(Cl)cc2)c1 | 0.0466 | > 29.1 | 0.159 | > 100 | 0.372 | > 100 | 0.115 | > 100 | 0.0704 | > 37.1 | 0.0633 | > 25.9 | 1.17 | > 100 | 0.704 | > 100 | 0.909 | > 100 | 0.0701 | > 25.4 |
| CCC#CC[C@H]1C/C=C2/C(=O)C=C[C@@H]2C/C=C\CCCC(=O)O1 | 0.848 | 2.16 | 1.48 | 7.02 | 1.17 | 3.83 | 0.698 | 1.5 | 1.14 | 3.65 | 1.48 | 8.61 | 1.11 | 3.27 | 1.9 | 7.42 | 1.27 | 5.26 | 1.43 | 4.36 |
| C[N+](C)(C)CC1CCCC(C[N+](C)(C)C)C1=O (stereo not drawn) | – | 12.5 | – | 38 | – | 3.75 | – | 3.09 | – | 39.2 | – | 2.37 | – | 3.09 | – | 3.95 | – | 31.4 | – | 45.6 |
| COc1cc2oc(-c3ccc(O)cc3)cc(=O)c2c(OC)c1OC | – | > 100 | – | > 100 | – | > 100 | – | > 100 | – | > 100 | – | > 100 | – | > 100 | – | > 100 | – | > 100 | – | > 100 |
| CC(=O)OC1CC(O)C23COC(O)C1(C)C2CC(O)C1(C)C3C(=O)C(O)C2(C)C(c3ccoc3)CC3OC321 (stereo not drawn) | < 0.01 | > 100 | > 100 | > 100 | > 100 | > 100 | < 0.01 | 12.5 | < 0.0486 | > 100 | 0.0793 | > 59.8 | 0.071 | > 100 | 1.94 | > 100 | < 0.0188 | 18.4 | 0.0522 | – |
| COc1ccc(C(=O)c2cc(C)c(OC)c(C)c2)c(OC)c1N(C(=O)C(Cl)Cl)C(=O)C(Cl)Cl | 0.0461 | – | 0.0492 | > 100 | 0.237 | > 100 | 0.159 | > 100 | 0.0381 | 15.7 | 0.0338 | > 100 | 0.0607 | 2.75 | 0.0735 | > 100 | 0.0468 | 0.468 | 0.0323 | > 100 |
